The text below walks through data of patent publication US20260007133A1, “HERBICIDAL COMPOSITION COMPRISING AZINE COMPOUNDS” (BASF SE, priority 2022, published 2026).

The structures appear in SMILES notation.

What all share (type): in vivo
One assay deals with Alopecurus myosuroides. As to the kind of experiment: Greenhouse pre-emergence (PRE) herbicidal test on ALOMY. The note with it: Alopecurus myosuroides, pre-emergence, ALOMY PRE. The method, boiled down: (§1)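 Seeds were sown per species in pots of loamy sand with about 3.0% humus, treated pre-emergence, watered and hooded until rooted. Plants grew at 10-25° C or 20-35° C depending on species. Damage was scored 0-100 (100 = no emergence or above-ground parts destroyed) at 20 DAT.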

The subject of assay [1] is Commelina benghalensis. As to the kind of experiment: Greenhouse pre-emergence (PRE) herbicidal test on COMBE. As to conditions: Commelina benghalensis, pre-emergence. Summed up:
as §1

In a further assay the test system is Galium aparine. In words: Greenhouse pre-emergence (PRE) herbicidal test on GALAP. The note with it: Galium aparine, pre-emergence; GALAP PRE, use rate 1200 gai/ha. An excerpt:
(§2) The culture containers used were plastic pots containing loamy sand with approximately 3.0% of humus as substrate. The seeds of the test plants were sown separately for each species.
(§3) For the pre-emergence treatment, the active compounds, suspended or emulsified in water, were applied directly after sowing by means of finely distributing nozzles. The containers were irrigated gently to promote germination and growth and subsequently covered with transparent plastic hoods until the plants had rooted. This cover caused uniform germination of the test plants unless this was adversely affected by the active compounds.
(§4) Depending on the species, the plants were kept at 10-25° C. and 20-35° C., respectively.
(§5) The test period extended over 2 to 4 weeks. During this time, the plants were tended and their response to the individual treatments was evaluated.
(§6) Evaluation was carried out using a scale from 0 to 100. 100 means no emergence of the plants, or complete destruction of at least the above-ground parts, and 0 means no damage or normal course of growth. A good herbicidal activity is given at values of at least 70, and very good herbicidal activity is given at values of at least 85.
(§7) If not stated differently, the respective components A and B, and if appropriate, C were formulated as a 5% by weight strength emulsion concentrate and, with addition of the amount of solvent system, introduced into the spray liquor used for applying the active compound.
(§8) As indicated application was either post emergent (POST) at the respective growth stage (GS) of the weed (BBCH code), or pre-emergent (PRE).
(§9) Assessment was 20 days after treatment (DAT).

Assay [2] relates to Euphorbia heterophylla. As to the kind of experiment: Greenhouse pre-emergence (PRE) herbicidal test on EPHHL. As to conditions: Euphorbia heterophylla, pre-emergence. Summed up: as §1
The test system of the next assay is Lolium multiflorum. In words: Greenhouse pre-emergence (PRE) herbicidal test on LOLMU. As to conditions: Lolium multiflorum, pre-emergence, LOLMU PRE. Summed up:
as §1

Another assay has as its system Abutilon theophrasti. As to the kind of experiment: Greenhouse pre-emergence (PRE) herbicidal test on ABUTH. As to conditions: Abutilon theophrasti, pre-emergence. Summed up: as §1
The next assay deals with Avena fatua. In words: Greenhouse pre-emergence (PRE) herbicidal test on AVEFA.
Source text: as §2, §3, §4, §5, §6, §7, §8, §9

Assay [3] relates to Geranium pusillum. As to the kind of experiment: Greenhouse pre-emergence (PRE) herbicidal test on GERPU. The note with it: Geranium pusillum, pre-emergence, GERPU PRE.
Source text: as §2, §3, §4, §5, §6, §7, §8, §9

The next assay deals with Ipomoea hederacea. As to the kind of experiment: Greenhouse pre-emergence (PRE) herbicidal test on IPOHE. As to conditions: Ipomoea hederacea, pre-emergence.
Source text: as §2, §3, §4, §5, §6, §7, §8, §9

The next assay deals with Amaranthus retroflexus. As to the kind of experiment: Greenhouse post-emergence (POST) herbicidal test on AMARE. As to conditions: Amaranthus retroflexus, post-emergence, 480 h, POST, use rate 125 gai/ha, 20 DAT. The method, boiled down:
(§10)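 Plants grown in pots of loamy sand (~3.0% humus) to 3–15 cm height, then sprayed with compounds suspended or emulsified in water (formulated as 5% by weight emulsion concentrate). Kept at 10-25° C or 20-35° C by species; injury scored 0–100 (100 = complete destruction) at 20 DAT.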

The next assay deals with AMAPA. In words: Greenhouse pre-emergence (PRE) herbicidal test on AMAPA. As to conditions: pre-emergence, 480 h, 20 DAT.
Assay [4] relates to Commelina benghalensis. In words: Greenhouse post-emergence (POST) herbicidal test on COMBE. The note with it: 480 h, 20 DAT. On the procedure:
as §2
(§11) For the post-emergence treatment, the test plants were grown to a plant height of from 3 to 15 cm, depending on the plant habit, and only then treated with the active compounds which had been suspended or emulsified in water. To this end, the test plants were either sown directly, and grown in the same containers, or they were first grown separately as seedlings and transplanted into the test containers a few days prior to treatment.
as §4, §5, §6, §7, §8, §9

Assay [5] concerns Euphorbia heterophylla. As to the kind of experiment: Greenhouse post-emergence (POST) herbicidal test on EPHHL. As to conditions: Euphorbia heterophylla, post-emergence, 480 h, POST, EPHHL, 20 DAT. The method, boiled down:
as §10

Assay [6] concerns Echinochloa crus-galli. As to the kind of experiment: Greenhouse pre-emergence (PRE) herbicidal test on ECHCG. As to conditions: Echinochloa crus-galli, pre-emergence, 480 h, PRE, ECHCG, 20 DAT.
Another assay concerns Setaria viridis. In words: Greenhouse post-emergence (POST) herbicidal test on SETVI. As to conditions: 480 h, 20 DAT. As to the method: as §2, §11, §4, §5, §6, §7, §8, §9
The next assay deals with Brachiaria decumbens. In words: Greenhouse pre-emergence (PRE) herbicidal test on BRADC. As to conditions: Urochloa decumbens, BRADC PRE, use rate 400 gai/ha.
Source text: as §2, §3, §4, §5, §6, §7, §8, §9

Assay [7] relates to Geranium pusillum. As to the kind of experiment: Greenhouse post-emergence (POST) herbicidal test on GERPU. The note with it: Geranium pusillum, post-emergence, 480 h, POST, GERPU, use rate 50 gai/ha, 20 DAT. The method, boiled down:
as §10

The next assay relates to Digitaria sanguinalis. As to the kind of experiment: Greenhouse post-emergence (POST) herbicidal test on DIGSA. As to conditions: Digitaria sanguinalis, post-emergence, 480 h, POST, DIGSA, use rate 100 gai/ha, 20 DAT. Summed up: as §10
Assay [8] has as its system Echinochloa crus-galli. As to the kind of experiment: Greenhouse post-emergence (POST) herbicidal test on ECHCG. The note with it: Echinochloa crus-galli, post-emergence, 480 h, POST, ECHCG, use rate 100 gai/ha, 20 DAT; read-out: % activity. Summed up: as §10
Where [9] appears, read: use rate 8 gai/ha, read-out: % activity.

As to `Nc1c([N+](=O)[O-])ccc(Oc2ccccc2)c1Cl` [Aclonifen, aclonifen], the inhibition at 300 g/ha in the assay on Alopecurus myosuroides (use rate 300 gai/ha) came out at 0%; in the assay with Euphorbia heterophylla [2] (EPHHL PRE, use rate 300 gai/ha), 20%; in the assay on Lolium multiflorum (use rate 300 gai/ha), 10%; with Avena fatua (use rate 300 gai/ha), 0%; in the assay on Geranium pusillum [3] (use rate 300 gai/ha), 30%. Also, the inhibition at 1200 g/ha in the assay on Alopecurus myosuroides (use rate 1200 gai/ha) stood at 50%; in the assay with Commelina benghalensis [1] (COMBE PRE, use rate 1200 gai/ha), 85%; in the assay on Galium aparine it was 45%; in the assay on Euphorbia heterophylla [2] (EPHHL PRE, use rate 1200 gai/ha), 50%; in the assay with Abutilon theophrasti (ABUTH PRE, use rate 1200 gai/ha), 35%; in the assay on Avena fatua (use rate 1200 gai/ha) it was 0%. The inhibition at 1200 g/ha with Geranium pusillum [3] (use rate 1200 gai/ha) was found to be 65%; with Ipomoea hederacea (IPOHE PRE, use rate 1200 gai/ha), 0%.

Regarding `O=C(O)c1c(Cl)ccc2cc(Cl)cnc12` [Quinclorac, quinclorac], the inhibition at 500 g/ha in the assay on Commelina benghalensis [1] (480 h, PRE, use rate 500 gai/ha, 20 DAT) was 65%; in the assay on AMAPA (use rate 500 gai/ha), 70%. For the same molecule, the inhibition at 125 g/ha in the assay on Amaranthus retroflexus is 50%; in the assay with AMAPA (use rate 125 gai/ha) it was 65%. Also, in the assay with AMAPA (use rate 62.5 gai/ha), the inhibition at 62.5 g/ha was found to be 60%. For the same molecule, the inhibition at 250 g/ha in the assay with AMAPA (use rate 250 gai/ha) came to 65%.

Turning to `Cn1nc(C(F)(F)F)c(CS(=O)(=O)C2=NOC(C)(C)C2)c1OC(F)F` [Pyroxasulfone, pyroxasulfone], the inhibition at 4 g/ha worked out at 25% in the assay with Euphorbia heterophylla [2] (480 h, PRE, EPHHL, use rate 4 gai/ha, 20 DAT); 0% in the assay on Abutilon theophrasti (480 h, PRE, ABUTH, use rate 4 gai/ha, 20 DAT); 80% in the assay with Echinochloa crus-galli [6] (use rate 4 gai/ha); 30% in the assay with Setaria viridis (use rate 4 gai/ha). Moreover, the inhibition at 8 g/ha in the assay with Euphorbia heterophylla [2] (480 h, PRE, EPHHL, use rate 8 gai/ha, 20 DAT, read-out: % activity) is 20%; in the assay on Abutilon theophrasti (480 h, PRE, ABUTH, use rate 8 gai/ha, 20 DAT, read-out: % activity), 0%; with Euphorbia heterophylla [5] (setting [9]), 10%; in the assay on Echinochloa crus-galli [6] (setting [9]), 80%; with Setaria viridis (use rate 8 gai/ha), 40%. Besides, the inhibition at 16 g/ha amounted to 25% with Euphorbia heterophylla [2] (480 h, PRE, EPHHL, use rate 16 gai/ha, 20 DAT); 45% in the assay on Commelina benghalensis [4] (use rate 16 gai/ha); 10% with Abutilon theophrasti (480 h, PRE, ABUTH, use rate 16 gai/ha, 20 DAT); 25% in the assay with Euphorbia heterophylla [5] (use rate 16 gai/ha); 80% in the assay on Setaria viridis (use rate 16 gai/ha); 0% in the assay with Ipomoea hederacea (480 h, PRE, IPOHE, use rate 16 gai/ha, 20 DAT).

As for `CCC(C)(CC)c1cc(NC(=O)c2c(OC)cccc2OC)on1` [Isoxaben, isoxaben], the inhibition at 400 g/ha in the assay with Alopecurus myosuroides (use rate 400 gai/ha) was 15%; in the assay with Brachiaria decumbens, 0%; in the assay on Lolium multiflorum (use rate 400 gai/ha) it was 0%; in the assay with Avena fatua (use rate 400 gai/ha) it was 0%. Also, the inhibition at 100 g/ha in the assay with Lolium multiflorum (use rate 100 gai/ha) came out at 0%; with Avena fatua (use rate 100 gai/ha), 0%; in the assay with Geranium pusillum [3] (use rate 100 gai/ha) it was 15%.

For the molecule `O=C(Nc1ccc(F)cc1F)c1cccnc1Oc1cccc(C(F)(F)F)c1` [Diflufenican, diflufenican], the inhibition at 50 g/ha with Commelina benghalensis [4] (use rate 50 gai/ha) and in the assay with Geranium pusillum [7] was 25% in each case. Moreover, the inhibition at 100 g/ha in the assay with Commelina benghalensis [4] (use rate 100 gai/ha) turned out to be 20%; in the assay on Digitaria sanguinalis, 35%; with Echinochloa crus-galli [8], 40%.
